The record followed here is ChEMBL document CHEMBL4014265, “Crassins A-H, Diterpenoids from the Roots of Croton crassifolius” (J Nat Prod, 2017).

pIC50: −log10 of the molar value. Some results are limits rather than exact numbers.

Assay [1] deals with HL-60. As to the kind of experiment: Cytotoxicity against human HL60 cells assessed as growth inhibition at 20 uM after 72 hrs by MTT assay relative to control. The assay is classed as functional. As to conditions: HL-60, 72 h, read-out: GI. (In general: Formazan colour is commonly taken as a measure of viable cells.)
Assay [2] has as its system A549. As to the kind of experiment: Cytotoxicity against human A549 cells assessed as growth inhibition at 20 uM after 72 hrs by SRB assay relative to control. To be noted: A549, 72 h, read-out: GI. The assay is classed as functional.
Assay [3] concerns HL-60. As to the kind of experiment: Cytotoxicity against human HL60 cells assessed as growth inhibition after 72 hrs by MTT assay. The assay is classed as functional, cell-based. As to conditions: HL-60, 72 h.
Assay [4] has as its system A549. As to the kind of experiment: Cytotoxicity against human A549 cells assessed as growth inhibition after 72 hrs by SRB assay. The assay is classed as functional, cell-based. As to conditions: A549, 72 h. Background: In SRB staining, fixed cells bind dye roughly in proportion to their protein.

With `COC(=O)[C@]1(C)CCCC2=C1CC[C@@H](C)[C@]2(C)CCC1=CC(=O)O[C@H]1O`, the inhibition of growth at 20 µM in the assay on HL-60 [1] and in the assay with A549 [2] was > 50% throughout. In addition, the pIC50 is 4.93 with HL-60 [3] and 5.28 in the assay on A549 [4].
Consider `COC(=O)[C@@]1(C)CC(=O)C2=C(c3ccoc3)C[C@]3(C)C2=C1CC[C@H]3C`, for which the inhibition of growth at 20 µM in the assay on HL-60 [1] and in the assay with A549 [2] was > 50% each time. The results for the pIC50 in the assay with HL-60 [3] and in the assay with A549 [4] were 4.98 and 5.08, respectively.

As a reminder, the pIC50 is the negative decadic logarithm of the IC50, by convention in mol/L.
